Data: patent US20260306640A1, “TECHNOLOGIES TARGETING CELL STATES” (Auron Therapeutics, Inc., priority 2023, published 2026)

Columns and labels:
[1] = biological target: KAT2B (Homo sapiens, UniProt Q92831); experiment: KAT2B degradation, Western Blot (Jess), NCI-H1048 cells; format: cell-based; design: degrader, Western blot (Jess); details: NCI-H1048 cells, KAT2B, 24 h, Western Blot, vs DMSO; read-out: KAT2B NCI-H1048 DC50
Outline: (§1)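 DC50 came from protein loss relative to DMSO, measured by Jess capillary immunoblot of RIPA lysates with chemiluminescence read-out. Before lysis, NCI-H1048 cells in 5% FBS HITES medium were exposed to compound for 24 h at 37° C.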

[2] = biological target: KAT2A (Homo sapiens, UniProt Q92830); experiment: KAT2A degradation, Western Blot (Jess), NCI-H1048 cells; format: cell-based; design: degrader, Western blot (Jess); details: NCI-H1048 cells, KAT2A, 24 h, Western Blot, vs DMSO; read-out: KAT2A NCI-H1048 DC50
Outline: as §1

KAT2A, sequence (Q92830 whole entry): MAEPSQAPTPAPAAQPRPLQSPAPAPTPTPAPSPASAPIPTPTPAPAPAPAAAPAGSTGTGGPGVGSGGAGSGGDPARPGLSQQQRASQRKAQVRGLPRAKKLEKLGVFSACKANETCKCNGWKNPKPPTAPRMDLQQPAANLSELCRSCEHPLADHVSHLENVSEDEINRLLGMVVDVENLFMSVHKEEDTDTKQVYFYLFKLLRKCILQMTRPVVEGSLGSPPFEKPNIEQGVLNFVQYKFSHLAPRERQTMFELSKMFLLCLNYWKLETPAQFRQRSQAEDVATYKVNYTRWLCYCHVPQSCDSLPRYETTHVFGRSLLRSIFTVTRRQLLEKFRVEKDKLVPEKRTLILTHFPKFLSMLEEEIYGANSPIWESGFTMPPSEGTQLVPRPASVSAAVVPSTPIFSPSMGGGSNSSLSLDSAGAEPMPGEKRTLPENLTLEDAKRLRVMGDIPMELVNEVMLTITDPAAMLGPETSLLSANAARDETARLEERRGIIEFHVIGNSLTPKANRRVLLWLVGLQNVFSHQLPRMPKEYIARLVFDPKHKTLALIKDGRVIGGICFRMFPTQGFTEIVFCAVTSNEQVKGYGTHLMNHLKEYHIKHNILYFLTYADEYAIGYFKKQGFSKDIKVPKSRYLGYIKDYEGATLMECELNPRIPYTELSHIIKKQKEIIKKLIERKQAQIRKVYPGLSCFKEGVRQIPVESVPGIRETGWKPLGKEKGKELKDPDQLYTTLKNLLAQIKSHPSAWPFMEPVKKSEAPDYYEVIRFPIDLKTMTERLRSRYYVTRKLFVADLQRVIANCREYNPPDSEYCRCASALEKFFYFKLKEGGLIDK
KAT2B, sequence (Q92831 whole entry): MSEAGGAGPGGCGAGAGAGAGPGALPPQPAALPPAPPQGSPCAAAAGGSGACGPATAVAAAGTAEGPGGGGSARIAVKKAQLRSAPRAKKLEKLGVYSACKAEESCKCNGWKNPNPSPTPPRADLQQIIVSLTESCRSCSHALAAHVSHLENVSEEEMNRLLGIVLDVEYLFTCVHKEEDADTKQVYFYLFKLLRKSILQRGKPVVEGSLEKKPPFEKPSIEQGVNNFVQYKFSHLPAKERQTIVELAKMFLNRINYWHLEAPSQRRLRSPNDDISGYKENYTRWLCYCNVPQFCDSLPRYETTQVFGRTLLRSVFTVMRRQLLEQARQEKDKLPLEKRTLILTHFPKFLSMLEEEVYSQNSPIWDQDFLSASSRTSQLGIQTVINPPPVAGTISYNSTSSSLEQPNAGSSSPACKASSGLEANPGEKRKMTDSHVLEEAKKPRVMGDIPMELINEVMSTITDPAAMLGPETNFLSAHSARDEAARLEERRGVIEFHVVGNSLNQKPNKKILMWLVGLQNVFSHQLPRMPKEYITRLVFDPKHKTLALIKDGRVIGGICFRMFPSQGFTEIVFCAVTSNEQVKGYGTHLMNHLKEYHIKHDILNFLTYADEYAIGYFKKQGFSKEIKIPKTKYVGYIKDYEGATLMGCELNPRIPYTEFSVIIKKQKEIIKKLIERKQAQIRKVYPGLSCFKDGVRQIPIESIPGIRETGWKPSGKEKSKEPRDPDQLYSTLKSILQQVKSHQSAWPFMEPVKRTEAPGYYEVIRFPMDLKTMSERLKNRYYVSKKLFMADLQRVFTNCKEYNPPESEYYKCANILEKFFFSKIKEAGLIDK

Compound | DC50 [1] [nM] | DC50 [2] [nM]
Cc1cc(N2CCC3(CCN(Cc4ccc([C@H]5C[C@@H](Nc6cnn(C)c(=O)c6C)CN(C)C5)cc4)CC3)CC2)ccc1C1CCC(=O)NC1=O (stereo partly shown) [Compound 339] | < 1 | < 1
CN1C[C@H](Nc2cnn(C)c(=O)c2Cl)C[C@H](c2ccc(CN3CCC4(CC3)CCN(c3ccc(C5CCC(=O)NC5=O)c(F)c3)CC4)cc2)C1 (stereo partly shown) [Compound 340] | < 1 | < 1
CN1C[C@H](Nc2cnn(C)c(=O)c2Cl)C[C@H](c2ccc(CN3CCN(c4ccc(F)c(C5CCC(=O)NC5=O)c4)CC3)cc2)C1 (stereo partly shown) [Compound 341] | 1 to 30 | < 1
Cc1c(N[C@@H]2C[C@H](c3ccc(CN4CCN(c5ccc(F)c(C6CCC(=O)NC6=O)c5)CC4)cc3)CN(C)C2)cnn(C)c1=O (stereo partly shown) [Compound 342] | 1 to 30 | < 1
CN1C[C@H](Nc2cnn(C)c(=O)c2Cl)C[C@H](c2ccc(CN3CCC4(CC3)CCN(c3ccc(C5CCC(=O)NC5=O)c(C(F)(F)F)c3)CC4)cc2)C1 (stereo partly shown) [Compound 343] | > 30 | > 30
CN1C[C@H](Nc2cnn(C)c(=O)c2Cl)C[C@H](c2ccc(CN3CCN(c4cncc(C5CCC(=O)NC5=O)c4)CC3)cc2)C1 (stereo partly shown) [Compound 344] | > 30 | > 30
Cc1c(N[C@@H]2C[C@H](c3ccc(CN4CCN(c5cncc(C6CCC(=O)NC6=O)c5)CC4)cc3)CN(C)C2)cnn(C)c1=O (stereo partly shown) [Compound 346] | > 30 | > 30
CN1C[C@H](Nc2cnn(C)c(=O)c2Cl)C[C@H](c2ccc(CN3CCN(c4cccc(C5CCC(=O)NC5=O)c4)CC34CC4)cc2)C1 (stereo partly shown) [Compound 347] | > 30 | 1 to 30
CN1C[C@H](Nc2cnn(C)c(=O)c2Br)C[C@H](c2ccc(CN3CCN(c4cccc(C5CCC(=O)NC5=O)c4)CC34CC4)cc2)C1 (stereo partly shown) [Compound 348] | 1 to 30 | < 1
Cc1c(N[C@@H]2C[C@H](c3ccc(CN4CCN(c5cccc(C6CCC(=O)NC6=O)c5)CC45CC5)cc3)CN(C)C2)cnn(C)c1=O (stereo partly shown) [Compound 349] | > 30 | < 1
CN1C[C@H](Nc2cnn(C)c(=O)c2Br)C[C@H](c2ccc(CN3CCN(c4ccnc(C5CCC(=O)NC5=O)c4)CC3)cc2)C1 (stereo partly shown) [Compound 350] | > 30 | 1 to 30
CN1C[C@H](Nc2cnn(C)c(=O)c2Cl)C[C@H](c2ccc(CN3CCN(c4ccnc(C5CCC(=O)NC5=O)c4)CC3)cc2)C1 (stereo partly shown) [Compound 351] | > 30 | 1 to 30
Cc1c(N[C@@H]2C[C@H](c3ccc(CN4CCN(c5ccnc(C6CCC(=O)NC6=O)c5)CC4)cc3)CN(C)C2)cnn(C)c1=O (stereo partly shown) [Compound 352] | > 30 | 1 to 30

Second part, the molecule after the results:

DC50 [1] [nM] | DC50 [2] [nM] | Compound
> 30 | < 1 | CN1C[C@H](Nc2cnn(C)c(=O)c2Br)C[C@H](c2ccc(CN3C4CC3CN(c3cccc(C5CCC(=O)NC5=O)c3)C4)cc2)C1 (stereo partly shown) [Compound 353]
> 30 | 1 to 30 | CN1C[C@H](Nc2cnn(C)c(=O)c2Cl)C[C@H](c2ccc(CN3C4CC3CN(c3cccc(C5CCC(=O)NC5=O)c3)C4)cc2)C1 (stereo partly shown) [Compound 354]
> 30 | 1 to 30 | CN1C[C@H](Nc2cnn(C)c(=O)c2Br)C[C@H](c2ccc(CN3CCN(c4cc(C5CCC(=O)NC5=O)ccn4)CC3)cc2)C1 (stereo partly shown) [Compound 355]
> 30 | 1 to 30 | CN1C[C@H](Nc2cnn(C)c(=O)c2Cl)C[C@H](c2ccc(CN3CCN(c4cc(C5CCC(=O)NC5=O)ccn4)CC3)cc2)C1 (stereo partly shown) [Compound 356]
> 30 | 1 to 30 | Cc1c(N[C@@H]2C[C@H](c3ccc(CN4CCN(c5cc(C6CCC(=O)NC6=O)ccn5)CC4)cc3)CN(C)C2)cnn(C)c1=O (stereo partly shown) [Compound 357]
> 30 | > 30 | CN1C[C@H](Nc2cnn(C)c(=O)c2Br)C[C@H](c2ccc(CN3CCN(c4cc(C5CCC(=O)NC5=O)c(F)cc4F)CC3)cc2)C1 (stereo partly shown) [Compound 358]
> 30 | > 30 | CN1C[C@H](Nc2cnn(C)c(=O)c2Cl)C[C@H](c2ccc(CN3CCN(c4cc(C5CCC(=O)NC5=O)c(F)cc4F)CC3)cc2)C1 (stereo partly shown) [Compound 359]
